Reference: patent US20050191348A1 (priority 2004, published 2005)

Experiments:
caspase-3 = assay: Caspase-3 cleavage in SH-SY5Y cells in serum free medium; type: cell-based, human; details: 3 days serum free, then 48 h with 1, 10 μM
Experimental: FIGS. 3A-3D show the neuroprotective effects of propargylamine against serum deprivation. PC12 cells (3A) and SH-SY5Y neuroblastoma cells (3B) were incubated under serum deprivation and were untreated or treated with propargylamine (0.1, 1, 10 μM) for 24 hours. Cell death was detected by ELISA and the values are expressed as a percentage of the control. The results are the mean±SEM (n=3). *p<0.05 vs. control, untreated cells. (3C) Morphological characteristics visualized by phase-contrast microscope of PC12 cells maintained with full serum medium (a), or serum-free medium in the absence (b) or presence of propargylamine (1 μM) (c) or (10 μM) (d). The morphology was visualized by phase-contrast microscope. The results are representative photographic. Similar results were repeated 3 times. (3D) Effect of propargylamine on caspase-3 cleavage in SH-SY5Y neuroblastoma cells incubated 3 days in serum free medium, followed by 48 h incubation with or without propargylamine (1,10 μM).
(iv) Immunoblot Analyses. […] Protein content was determined using the Bradford method. […] Quantification of results was accomplished by measuring the optical density of the labeled bands from the autoradiograms by scanning laser densitometry using the computerized imaging program Bio-ID (Imager, Bio1D software; Vilber Lourmat, Marne La Vallee, France). […]

[1] = system: SH-SY5Y neuroblastoma cells; assay: Cell death under serum deprivation (apoptotic cell death detection ELISA), SH-SY5Y; type: cell-based, human; details: 24 h serum deprivation, significant at 1 and 10 μM
Experimental: (ii) Cell culture, viability measurements and experimental treatments. Two different neuronal cell lines were used: the rat PC12 and the human neuroblastoma SH-SY5Y cells.
SH-SY5Y neuroblastoma cells were plated in 100-mm culture dishes and cultured in Dulbecco's modified Eagle's medium (DMEM; 4500 mg/l glucose), containing 10% fetal calf serum (FCS) and a mixture of 1% penicillin/streptomycin/nystatin.
Cell cultures were incubated at 37° C. in a humid 5% CO2-95% air environment. For cell viability assays, cells were treated with various drugs in serum free media containing 0.1% BSA.
(iii) Measurement of cell death.
In order to test cell viability, PC12 cells and SH-SY5Y neuroblastoma cels were incubated under serum deprivation and were untreated or treated with rasagiline (0.1. 1 or 10 μM) for 24 hours.
In order to test cell viability, PC12 cells and SH-SY5Y neuroblastoma cels were incubated under serum deprivation and were untreated or treated with propargylamine (0.1. 1 or 10 μM) for 24 hours.

PKC = PKC phosphorylation in PC12 cell lysates, Western blot with p-PKC (pan) antibody; type: cell-based, rat; details: PC12, 0.1, 1 and 10 μM, 1 h
Experimental: (iv) Immunoblot Analyses. For Western blot analyses, attached cells were washed once in cold PBS and then lysed in 1× nonreducing Laemmli buffer followed by boiling for 3-5 min. Protein content was determined using the Bradford method. Equal amounts of protein were separated by SDS-polyacrylamide gel electrophoresis and blotted onto polyvinylidene difluoride (PVDF) membranes (Millipore). Membranes were treated with blocking buffer (5% dry milk in PBS or 5% dry milk, 0.05% Tween 20 (Sigma) in TBS). Primary antibodies were diluted in PBS or in TBS containing 5% BSA, 0.05% Tween 20 and incubated with membranes for 20 h at 4° C., followed by incubation (1 h at room temperature) in dilutions of horseradish peroxidase (HRP)-conjugated secondary antibodies in the same buffers. Following antibody incubations, membranes were washed in 0.5% Tween 20 in PBS or TBS. Detection was achieved using ECL™ Western Blotting Detection Reagent (Amersham, Pharmacia, Little Chalfort Buckinghamshire, UK). Quantification of results was accomplished by measuring the optical density of the labeled bands from the autoradiograms by scanning laser densitometry using the computerized imaging program Bio-ID (Imager, Bio1D software; Vilber Lourmat, Marne La Vallee, France). The values were normalized to β-actin intensity levels.
Since activation of PKC has been shown previously to modulate cell viability, resulting in protection of neuronal cells, it was of interest to investigate the effects of rasagiline on PKC activation. In one experiment, PC12 cells were untreated or treated with various concentrations of rasagiline (0.1, 1 and 10 μM) for 1 hour. […] Phosphorylation of PKC was analyzed in cell lysates by Western blotting and detected with p-PKC (pan) antibody.
The effect of propargylamine on PKC phosphorylation/activation was investigated as described in Example 2 above.

MAPK = MAPK activation (phospho-p44/42 MAPK immunoblot) in PC12 cells; type: cell-based, rat; details: PC12, 0.1, 1 and 10 μM, 0.5 h
Experimental: (viii) Extracellular signal-regulated kinase (ERK) activity. The kinase activity of the ERKs was measured using the MAPK assay kit (Cell Signaling Technology) according to the manufacturer's protocol. In brief, for kinase activity assays, PC12 cells were grown in 6-well plates (5×10^5 cells/well). Eighteen to twenty-four hours before experiments, the medium was replaced with DMEM with 0.5% FCS and treated as described in the figures. Experimental treatments were performed in 1 ml medium containing 0.5% FCS, with the vehicle or test drugs and/or inhibitors at 37° C., as described in the figures. After treatment, reactions were stopped by placing cells on ice and aspirating the medium. Cells were harvested in 50 mM Tris-HCl, pH 8.0, 150 mM NaCl, 5 mM EDTA, 1 mM DTT, 1% Triton X-100, and protease- and phosphatase-inhibitor cocktails. Protein concentration was determined by the Bradford method. As described previously (Yogev-Falach et al., 2002), each cell lysate, containing 30 μg protein, was separated on 4-12% SDS-polyacrylamide electrophoresis gels, immunoblotted, and identified using phospho-p44/42 MAPK (Thr202/Tyr204) antibody or p44/42 MAPK antibody. Data are representative of three to six independent experiments.
To study the effect of rasagiline on MAPK activation, PC12 cells were treated for 0.5 h with increasing concentrations of rasagiline (0.1, 1 and 10 μM), and quantification of the phospho-MAPK blots were normalized using the total MAPK blots, or PC12 cells were preincubated for 15 min with vehicle alone, or with PD98059 (30 μM) or GF109203X (2.5 μM) and then incubated without or with rasagiline (10 μM) for 0.5 h. Aliquots of cell lysates were then subjected to immunoblot analysis and probed with anti-phospho-MAPK (top blots) and anti-MAPK (bottom blots).
For the effect of propargylamine on MAPK activation, PC12 cells were treated for 0.5 h with increasing concentrations of propargylamine (0.1, 1 and 10 μM). Aliquots of cell lysates were then subjected to immunoblot analysis and probed with anti-phospho-MAPK and anti-MAP kinase. Quantification of the phospho-MAPK were normalized using the total MAPK blots.

## C#CCN [propargylamine]
caspase-3
  activated caspase-3: decreased activated caspase-3
[1]
  cell death induced by serum deprivation: significantly reduced cell death
PKC
  PKC phosphorylation: significant, dose-dependent increase in PKC phosphorylation
MAPK
  MAPK phosphorylation: induced MAPK phosphorylation
